Experimental data: publication PMC6566410, “Novel Diamide-Based Benzenesulfonamides as Selective Carbonic Anhydrase IX Inhibitors Endowed with Antitumor Activity: Synthesis, Biological Evaluation and In Silico Insights” (International Journal of Molecular Sciences, 2019)

Experiments:
[1] = target: hCA XII (Homo sapiens, UniProt O43570); experiment: stopped-flow CO2 hydrase assay; settings: for Selectivity ratio I/XII: KI hCA I / KI hCA XII
Source text: (§2) An Applied Photophysics stopped-flow instrument was used for assaying the CA catalysed CO2 hydration activity, as reported earlier [17]. The inhibition constants were obtained by non-linear least-squares methods using PRISM 3 and the Cheng-Prusoff equation as reported earlier, and represent the mean from at least three different determinations. The four tested CA isofoms were recombinant ones obtained in-house as reported earlier [26, 27, 28, 29].

[2] = test system: SNB-75; experiment: NCI one-dose SRB assay; type: cell-based; settings: Homo sapiens, SNB-75 (CNS Cancer), 1.00E-5 Molar, read-out: Growth Percent
Method in brief: (§1)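 Single-dose screen at 10^−5 M across the NCI sixty-cell-line panel, run per the US-NCI Developmental Therapeutic Program protocol. Cell growth and viability were read by sulforhodamine B colorimetric assay.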

[3] = test system: LOX IMVI; experiment: NCI one-dose SRB assay; type: cell-based; settings: Homo sapiens, LOX IMVI (Melanoma), 1.00E-5 Molar, read-out: Growth Percent
Method in brief: as §1

[4] = test system: OVCAR-8; experiment: NCI one-dose SRB assay; type: cell-based; settings: Homo sapiens, OVCAR-8 (Ovarian Cancer), 1.00E-5 Molar, read-out: Growth Percent
Method in brief: as §1

[5] = test system: HS 578T; experiment: NCI one-dose SRB assay; type: cell-based; settings: Homo sapiens, HS 578T (Breast Cancer), 1.00E-5 Molar, read-out: Growth Percent
Method in brief: as §1

[6] = test system: RXF 393; experiment: NCI one-dose SRB assay; type: cell-based; settings: Homo sapiens, RXF 393 (Renal Cancer), 1.00E-5 Molar, read-out: Growth Percent
Method in brief: as §1

[7] = test system: MALME-3M; experiment: NCI one-dose SRB assay; type: cell-based; settings: Homo sapiens, MALME-3M (Melanoma), 1.00E-5 Molar, read-out: Growth Percent
Method in brief: as §1

[8] = test system: UACC-62; experiment: NCI one-dose SRB assay; type: cell-based; settings: Homo sapiens, UACC-62 (Melanoma), 1.00E-5 Molar, read-out: Growth Percent
Method in brief: as §1

[9] = test system: IGROV1; experiment: NCI one-dose SRB assay; type: cell-based; settings: Homo sapiens, IGROV-1, IGROV1 (Ovarian Cancer), 1.00E-5 Molar, read-out: Growth Percent
Method in brief: as §1

[10] = test system: NCI-H460; experiment: NCI one-dose SRB assay; type: cell-based; settings: Homo sapiens, NCI-H460 (Non-Small Cell Lung Cancer), 1.00E-5 Molar, read-out: Growth Percent
Method in brief: as §1

[11] = test system: NCI-H522; experiment: NCI one-dose SRB assay; type: cell-based; settings: Homo sapiens, NCI-H522 (Non-Small Cell Lung Cancer), 1.00E-5 Molar, read-out: Growth Percent
Method in brief: as §1

[12] = test system: HL-60(TB); experiment: NCI one-dose SRB assay; type: cell-based; settings: Homo sapiens, HL-60(TB) (Leukemia), 1.00E-5 Molar, read-out: Growth Percent
Method in brief: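 NCI-60 one-dose protocol: compound at 10^−5 M; growth and viability quantified with SRB dye.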

[13] = test system: SF-268; experiment: NCI one-dose SRB assay; type: cell-based; settings: Homo sapiens, SF-268 (CNS Cancer), 1.00E-5 Molar, read-out: Growth Percent
Method in brief: as §1

[14] = test system: TK-10; experiment: NCI one-dose SRB assay; type: cell-based; settings: Homo sapiens, TK-10 (Renal Cancer), 1.00E-5 Molar, read-out: Growth Percent
Method in brief: as §1

[15] = test system: SK-MEL-28; experiment: NCI one-dose SRB assay; type: cell-based; settings: Homo sapiens, SK-MEL-28 (Melanoma), 1.00E-5 Molar, read-out: Growth Percent
Method in brief: as §1

[16] = test system: HCT-15; experiment: NCI one-dose SRB assay; type: cell-based; settings: Homo sapiens, HCT-15 (Colon Cancer), 1.00E-5 Molar, read-out: Growth Percent
Method in brief: as §1

[17] = test system: UACC-257; experiment: NCI one-dose SRB assay; type: cell-based; settings: Homo sapiens, UACC-257 (Melanoma), 1.00E-5 Molar, read-out: Growth Percent
Method in brief: as §1

[18] = test system: SN12C; experiment: NCI one-dose SRB assay; type: cell-based; settings: Homo sapiens, SN12C (Renal Cancer), 1.00E-5 Molar, read-out: Growth Percent
Method in brief: as §1

[19] = test system: HOP-62; experiment: NCI one-dose SRB assay; type: cell-based; settings: Homo sapiens, HOP-62 (Non-Small Cell Lung Cancer), 1.00E-5 Molar, read-out: Growth Percent
Method in brief: as §1

[20] = test system: A498; experiment: NCI one-dose SRB assay; type: cell-based; settings: Homo sapiens, A498 (Renal Cancer), 1.00E-5 Molar, read-out: Growth Percent
Method in brief: as §1

[21] = test system: MDA-MB-468; experiment: NCI one-dose SRB assay; type: cell-based; settings: Homo sapiens, MDA-MB-468 (Breast Cancer), 1.00E-5 Molar, read-out: Growth Percent
Method in brief: as §1

[22] = test system: 786-0; experiment: NCI one-dose SRB assay; type: cell-based; settings: Homo sapiens, 786-0 (Renal Cancer), 1.00E-5 Molar, read-out: Growth Percent
Method in brief: as §1

[23] = test system: MDA-MB-435; experiment: NCI one-dose SRB assay; type: cell-based; settings: Homo sapiens, MDA-MB-435 (Melanoma), 1.00E-5 Molar, read-out: Growth Percent
Method in brief: as §1

[24] = test system: DU-145; experiment: NCI one-dose SRB assay; type: cell-based; settings: Homo sapiens, DU-145 (Prostate Cancer), 1.00E-5 Molar, read-out: Growth Percent
Method in brief: as §1

[25] = test system: HT29; experiment: NCI one-dose SRB assay; type: cell-based; settings: Homo sapiens, HT-29, HT29 (Colon Cancer), 1.00E-5 Molar, read-out: Growth Percent
Method in brief: as §1

[26] = test system: SNB-19; experiment: NCI one-dose SRB assay; type: cell-based; settings: Homo sapiens, SNB-19 (CNS Cancer), 1.00E-5 Molar, read-out: Growth Percent
Method in brief: as §1

[27] = test system: EKVX; experiment: NCI one-dose SRB assay; type: cell-based; settings: Homo sapiens, EKVX (Non-Small Cell Lung Cancer), 1.00E-5 Molar, read-out: Growth Percent
Method in brief: as §1

[28] = target: hCA I (Homo sapiens, UniProt P00915); experiment: stopped-flow CO2 hydrase assay
Source text: as §2

[29] = test system: SR; experiment: NCI one-dose SRB assay; type: cell-based, human; settings: SR (Leukemia), 1.00E-5 Molar
Experimental: First, all diamide-based benzenesulfonamides herein reported 5a–h were screened for their antitumor activity at one dose (10^−5 M) assay against a panel of sixty cancer cell lines through the National Cancer Institute (NCI) Developmental Therapeutic Program (www.dtp.nci.nih.gov), according to US-NCI protocol. The cell growth and cell viability were evaluated using the sulforhodamine B (SRB) colorimetric assay.
This assay was carried out according to the protocol of the Drug Evaluation Branch, NCI, Bethesda. The cell growth and cell viability were evaluated using the sulforhodamine B (SRB) colorimetric assay, as reported earlier.

[30] = target: hCA IX (Homo sapiens, UniProt Q16790); experiment: stopped-flow CO2 hydrase assay; settings: for Selectivity ratio I/IX: KI hCA I / KI hCA IX; for Selectivity ratio II/IX: KI hCA II / KI hCA IX
Source text: as §2

[31] = target: hCA II (Homo sapiens, UniProt P00918); experiment: stopped-flow CO2 hydrase assay
Source text: as §2

Chain of hCA XII (O43570 25-354): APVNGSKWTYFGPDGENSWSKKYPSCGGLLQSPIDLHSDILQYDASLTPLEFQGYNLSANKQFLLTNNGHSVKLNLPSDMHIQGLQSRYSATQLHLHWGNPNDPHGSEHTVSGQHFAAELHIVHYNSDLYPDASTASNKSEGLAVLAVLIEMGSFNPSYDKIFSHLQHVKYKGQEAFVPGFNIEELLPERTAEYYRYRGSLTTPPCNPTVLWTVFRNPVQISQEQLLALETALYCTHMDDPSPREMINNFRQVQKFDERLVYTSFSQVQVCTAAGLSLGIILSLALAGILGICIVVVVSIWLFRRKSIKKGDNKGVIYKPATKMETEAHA
Chain of hCA I (P00915 whole entry): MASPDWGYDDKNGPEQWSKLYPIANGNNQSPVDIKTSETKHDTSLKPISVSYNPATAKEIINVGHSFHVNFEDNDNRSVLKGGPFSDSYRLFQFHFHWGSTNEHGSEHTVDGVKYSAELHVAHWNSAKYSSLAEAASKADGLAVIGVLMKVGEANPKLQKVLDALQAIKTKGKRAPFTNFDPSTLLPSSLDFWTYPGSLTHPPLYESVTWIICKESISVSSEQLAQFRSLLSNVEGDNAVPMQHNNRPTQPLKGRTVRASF

SMILES | Ki [1] [nM] | Selectivity ratio I/XII [1] | activity at 10 µM [2] [%] | activity at 10 µM [3] [%] | activity at 10 µM [4] [%] | activity at 10 µM [5] [%] | activity at 10 µM [6] [%] | activity at 10 µM [7] [%] | activity at 10 µM [8] [%] | activity at 10 µM [9] [%] | activity at 10 µM [10] [%] | activity at 10 µM [11] [%] | activity at 10 µM [12] [%] | activity at 10 µM [13] [%] | activity at 10 µM [14] [%] | activity at 10 µM [15] [%] | activity at 10 µM [16] [%] | activity at 10 µM [17] [%] | activity at 10 µM [18] [%] | activity at 10 µM [19] [%] | other results
Cc1ccc(C=C(NC(=O)c2ccccc2)C(=O)Nc2ccc(S(N)(=O)=O)cc2)cc1 [Compound 5d, N-(3-Oxo-3-((4-sulfamoylphenyl)amino)-1-(p-tolyl)prop-1-en-2-yl)benzamide] | 60.2 | 13.2 | 92.6 | 99 | 98.3 | 117 | 116 | 99 | 99.4 | 99.2 | 108 | 89.9 | 88.5 | 106 | 104 | 118 | 90.6 | 105 | 94.8 | 114 | activity at 10 µM [20]: 103%; activity at 10 µM [21]: 111%; activity at 10 µM [22]: 100%; activity at 10 µM [23]: 92.9%; activity at 10 µM [24]: 105%; activity at 10 µM [25]: 103%; activity at 10 µM [26]: 103%; activity at 10 µM [27]: 108%; Ki [28]: 796 nM; Growth Percent [29]: 85.23%; Ki [30]: 62.1 nM; Selectivity ratio I/IX [30]: 12.8; Selectivity ratio II/IX [30]: 1.5; Ki [31]: 94.4 nM
COc1ccc(C=C(NC(=O)c2ccccc2)C(=O)Nc2ccc(S(N)(=O)=O)cc2)cc1 [Compound 5e, N-(1-(4-Methoxyphenyl)-3-oxo-3-((4-sulfamoylphenyl)amino)prop-1-en-2-yl)benzamide] | 42.8 | 23.5 | 95.5 | 99.1 | 99.4 | 102 | 110 | 109 | 92.7 | 94.5 | 105 | 90.5 | 99.2 | 113 | 107 | 106 | 104 | 102 | 97.1 | 104 | Selectivity ratio II/XII ([1]; KI hCA II / KI hCA XII): 3; activity at 10 µM [20]: 102%; activity at 10 µM [21]: 108%; activity at 10 µM [22]: 105%; activity at 10 µM [23]: 97.5%; activity at 10 µM [24]: 113%; activity at 10 µM [25]: 100%; activity at 10 µM [26]: 100%; activity at 10 µM [27]: 105%; Ki [28]: 1010 nM; Growth Percent [29]: 88.45%; Ki [30]: 78 nM; Selectivity ratio I/IX [30]: 12.9; Selectivity ratio II/IX [30]: 1.5; Ki [31]: 128 nM
